Results: patent US4166125A, “2-Oxo-phenylbutanoic acid derivatives” (Grelan Pharmaceutical Co., Ltd., priority 1977, dated 1979)

Assays:
[1] = system: gross behaviour of the mice; assay: Gross behaviour (1) (oral administration), Irwin's multi-dimensional observation; conditions: oral, 500, 1000, 2000 and 4000 mg/Kg, 4 hours
Method: In 1% gum arabic solution was suspended 2-oxo-3-[4-(1-oxo-2-isoindolinyl)phenyl]butanamide at a concentration of 20%. […] The dosages of the compound were 500, 1000, 2000 and 4000 mg/Kg.
To mice of a control group was administered orally only 1% gum arabic solution.

[2] = Acute toxicity (1) (oral administration); format: in vivo; conditions: in vivo; mouse, oral, 7 days
Method: (§1) After administration of the compound, the number of mice that died during 7 days was observed, and LD50 value was calculated on the basis of the mortality.

mice = assay: Acute toxicity (1) (oral administration); format: in vivo; conditions: mice
Method: as §1

gastric mucosa = assay: Effect on gastric mucosa (1) (oral administration); format: in vivo, mouse (ddY-strain); design: unit not given here; conditions: mice, 4 hours
Method: 4 Hours after the administration, the mouse was sacrificed with ether, and its stomach was removed. The stomach was treated with 5% formalin for 3 minutes, and gastric mucosa was observed under a stereoscopic microscope. When gastric lesion in the mucosa was found, the length of each lesion was measured. Degree of gastric damage (i.e. GD50)* was calculated on the basis of the length of the lesion of each mouse.
Remark *: GD50 : The value corresponding to the relative frequency of 50% on the normal probability paper plotted the length of gastric lesions of each mouse.

[3] = system: febrile body temperature (Brewer's yeast); assay: Antipyretic activity (oral administration); format: in vivo, rat (Sprague-Dawley strain); conditions: 250 mg/Kg oral
Method: Antipyretic activity (oral administration)
According to a method conforming to Winter, C. A. et al [The Journal of Pharmacology and Experimental Therapeutics 133, 117, (1961)], 20% Brewer's yeast suspension in physiological saline was injected subcutaneously to 5 male rats in each group (Sprague-Dawley strain) weighing 200 to 250 g in an amount of 1.0 ml per 100 g of body weight of the rat. After fasting for 18 hours, each test compound suspended in 1% gum arabic solution was administered orally to the rats in an amount of 1.0 ml per 100 g of body weight. Then, the rectal temperature of the rats was taken.

adjuvant arthritis = assay: Inhibition to adjuvant arthritis (oral administration); format: in vivo, rat (Sprague-Dawley strain); conditions: for Increase in body weight / Weight of the organs: Adrenal glands / Weight of the organs: Spleen / Weight of the organs: Thymus: once a day for 7 days
Method: Inhibition to adjuvant arthritis.
According to a method conforming to Fujihira et al [Oyo Yakuri, 5, 169, (1971)], liquid paraffin suspension of Mycobacterium butiricum (hereinafter abbreviated as adjuvant) was injected subcutaneously to right hind paws of male rats (Spraque-Dawley strain) weighing 150 to 170 g in an amount of 0.3 mg/0.05 ml/rat. 14 Days after adjuvant injection, the rats, paws of which swelled to a similar degree, were selected and they were separated into groups. From the 15th day after adjuvant injection, each test compound suspended in 0.3% CMC-Na solution was orally administered once a day for 7 days to the 7 rats in each group in the dose shown in the following table 2.
The 16th, 19th and 22nd days after adjuvant injection the volume of left hand paws (i.e. paws not treated with the adjuvant) of the rats and their body weight were measured. Inhibition percent to the arthritis (edema) is calculated according to the same equation as that used in Experiment 1, and the value of ED40 is calculated on the basis of the inhibition percent. Then the rats were sacrificed with ether and the weight of their thymus, adrenal glands and spleen was determined.

rats = assay: Acute toxicity (2) (oral administration); format: in vivo; conditions: rats
Method: (§2) After administration of the compound, the number of rats that died during 7 days was observed, and LD50 value was calculated on the basis of the mortality.

[4] = Acute toxicity (2) (oral administration); format: in vivo; conditions: in vivo; rat, oral, 7 days
Method: as §2

[5] = system: pain threshold of hind paws (Brewer's yeast); assay: Analgesic activity, Randall and Selitto method (oral administration); format: in vivo, rat (Sprague-Dawley strain)
Method: Randall and Selitto method
According to a method conforming to Randall, L. O. and Selitto, J. J. [Archives Internationales de Pharmacodynamie et de Therapie, 111, 409, (1957)], 0.1 ml of 10% Brewer's yeast suspension in physiological saline was injected subcutaneously into the plantar surface of the right hind paws of 5 male rats in each group (Sprague-Dawley strain) weighing 90 to 110 g. 2 Hours after administration of the yeast suspension, each test compound suspended in 0.3% CMC-Na solution was orally administered to the rats in an amount of 1.0 ml per 100 g of body weight of the rat. 30 Minutes, 60 minutes and 120 minutes after administration of the test compounds, threshold values of left and right hind paws of the rats were measured by an electric pressure device made by Daiwa Kinzoku Co., Ltd. (Japan). The change of threshold was obtained by comparing the pain threshold obtained in a group after the yeast injection with that obtained before the yeast injection, in the same group as above. Increasing percent of pain threshold of the test compound was calculated on the basis of the mean changes of threshold of the test group and of that of the control group. Rats of the control group were administered orally only 0.3% CMC-Na solution.
According to the Litchfield-Wilcoxon method [The Journal of Pharmacology and Experimental Therapeutics, 96, 96, (1949)], ED50 value was calculated as follows on the basis of the increasing percent of pain threshold;

[6] = oral, 500, 1000, 2000 and 4000 mg/Kg, 7 days

CC(C(=O)C(N)=O)c1ccc(N2Cc3ccccc3C2=O)cc1 (stereo not drawn) [2-oxo-3-[4-(1-oxo-2-isoindolinyl)phenyl]butanamide]
Abnormal behaviour (depression to spontaneous activity, loss of righting reflex, tremor, convulsion, abnormal gait, loss of pinna reflex, loss of corneal reflex, abnormality of respiration) [1]: not observed
LD50 at 168 h [2]: > 4000 mg/kg
Macroscopic observation of organs in head, thorax and abdominal cavity (mice; after 7 days): No abnormality was observed
Abnormal behaviour (mice; [6]): not observed
Death (mice; [6]): not observed
Inhibition to increase of body weight (mice; [6]): not observed
Degree of gastric damage (GD50) (gastric mucosa; 100 mg/Kg oral): 1.0
Degree of gastric damage (GD50) (gastric mucosa; 200 mg/Kg oral): 7.0
Degree of gastric damage (GD50) (gastric mucosa; 400 mg/Kg oral): 2.5
Drop of febrile body temperature [3]: 1 °C
Inhibition to adjuvant arthritis (adjuvant arthritis; 25 mg/Kg oral, 1st day): 24.0%
Inhibition to adjuvant arthritis (adjuvant arthritis; 25 mg/Kg oral, 4th day): 25.1%
Inhibition to adjuvant arthritis (adjuvant arthritis; 25 mg/Kg oral, 7th day): 35.2%
Increase in body weight (adjuvant arthritis; 25 mg/Kg oral): 28.4 g
Weight of the organs: Adrenal glands (adjuvant arthritis; 25 mg/Kg oral): 12.5 ± 1.3 mg/100g of body weight
Weight of the organs: Spleen (adjuvant arthritis; 25 mg/Kg oral): 441.1 ± 39.6 mg/100g of body weight
Weight of the organs: Thymus (adjuvant arthritis; 25 mg/Kg oral): 146.0 ± 7.3 mg/100g of body weight
Inhibition to adjuvant arthritis (adjuvant arthritis; 100 mg/Kg oral, 1st day): 32.7%
Inhibition to adjuvant arthritis (adjuvant arthritis; 100 mg/Kg oral, 4th day): 34.5%
Inhibition to adjuvant arthritis (adjuvant arthritis; 100 mg/Kg oral, 7th day): 45.3%
Increase in body weight (adjuvant arthritis; 100 mg/Kg oral): 40.7 g
Weight of the organs: Adrenal glands (adjuvant arthritis; 100 mg/Kg oral): 11.5 ± 0.7 mg/100g of body weight
Weight of the organs: Spleen (adjuvant arthritis; 100 mg/Kg oral): 414.2 ± 28.8 mg/100g of body weight
Weight of the organs: Thymus (adjuvant arthritis; 100 mg/Kg oral): 147.2 ± 15.6 mg/100g of body weight
Macroscopic observation of organs in head, thorax and abdominal cavity (rats; after 7 days): No abnormality was observed
Abnormal behaviour (rats; [6]): not observed
Death (rats; [6]): not observed
Inhibition to increase of body weight (rats; [6]): not observed
LD50 at 168 h [4]: > 4000 mg/kg
Increasing percent of pain threshold ([5]; 25 mg/Kg oral, 30 minutes after administration): 15.6 ± 10.3%
Increasing percent of pain threshold ([5]; 25 mg/Kg oral, 60 minutes after administration): 14.1 ± 13.7%
Increasing percent of pain threshold ([5]; 25 mg/Kg oral, 120 minutes after administration): 22.1 ± 18.5%
Increasing percent of pain threshold ([5]; 50 mg/Kg oral, 30 minutes after administration): 46.9 ± 4.6%
Increasing percent of pain threshold ([5]; 50 mg/Kg oral, 60 minutes after administration): 32.7 ± 5.9%
Increasing percent of pain threshold ([5]; 50 mg/Kg oral, 120 minutes after administration): 48.6 ± 9.0%
Increasing percent of pain threshold ([5]; 100 mg/Kg oral, 30 minutes after administration): 46.1 ± 6.6%
Increasing percent of pain threshold ([5]; 100 mg/Kg oral, 60 minutes after administration): 32.4 ± 7.0%
Increasing percent of pain threshold ([5]; 100 mg/Kg oral, 120 minutes after administration): 39.0 ± 7.3%
Increasing percent of pain threshold ([5]; 200 mg/Kg oral, 30 minutes after administration): 57.3 ± 14.8%
Increasing percent of pain threshold ([5]; 200 mg/Kg oral, 60 minutes after administration): 39.7 ± 8.9%
Increasing percent of pain threshold ([5]; 200 mg/Kg oral, 120 minutes after administration): 39.6 ± 6.5%
ED50 ([5]; Rattus norvegicus, oral, Litchfield-Wilcoxon method, from increasing percent of pain threshold): 100 mg/kg
